The molecules below were run against T1, Cbl-b (Homo sapiens, UniProt Q13191) (assay: Cbl-b probe displacement HTRF binding assay). Details: 0.4 nM Cbl-b, 150 nM BODIPY probe.
T1 construct: biotin (biotinylated protein)
Method in brief: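 Binding IC50 from four-parameter fit of HTRF signal loss, normalised to DMSO (0%) and no-protein (100%) wells. Biotinylated Cbl-b 0.4 nM was preincubated 60 min with compound (20-point 1:2 dilution) before 15 min with 150 nM BODIPY probe; Tb-streptavidin detection.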

T1 sequence (Q13191 whole entry, species assumed): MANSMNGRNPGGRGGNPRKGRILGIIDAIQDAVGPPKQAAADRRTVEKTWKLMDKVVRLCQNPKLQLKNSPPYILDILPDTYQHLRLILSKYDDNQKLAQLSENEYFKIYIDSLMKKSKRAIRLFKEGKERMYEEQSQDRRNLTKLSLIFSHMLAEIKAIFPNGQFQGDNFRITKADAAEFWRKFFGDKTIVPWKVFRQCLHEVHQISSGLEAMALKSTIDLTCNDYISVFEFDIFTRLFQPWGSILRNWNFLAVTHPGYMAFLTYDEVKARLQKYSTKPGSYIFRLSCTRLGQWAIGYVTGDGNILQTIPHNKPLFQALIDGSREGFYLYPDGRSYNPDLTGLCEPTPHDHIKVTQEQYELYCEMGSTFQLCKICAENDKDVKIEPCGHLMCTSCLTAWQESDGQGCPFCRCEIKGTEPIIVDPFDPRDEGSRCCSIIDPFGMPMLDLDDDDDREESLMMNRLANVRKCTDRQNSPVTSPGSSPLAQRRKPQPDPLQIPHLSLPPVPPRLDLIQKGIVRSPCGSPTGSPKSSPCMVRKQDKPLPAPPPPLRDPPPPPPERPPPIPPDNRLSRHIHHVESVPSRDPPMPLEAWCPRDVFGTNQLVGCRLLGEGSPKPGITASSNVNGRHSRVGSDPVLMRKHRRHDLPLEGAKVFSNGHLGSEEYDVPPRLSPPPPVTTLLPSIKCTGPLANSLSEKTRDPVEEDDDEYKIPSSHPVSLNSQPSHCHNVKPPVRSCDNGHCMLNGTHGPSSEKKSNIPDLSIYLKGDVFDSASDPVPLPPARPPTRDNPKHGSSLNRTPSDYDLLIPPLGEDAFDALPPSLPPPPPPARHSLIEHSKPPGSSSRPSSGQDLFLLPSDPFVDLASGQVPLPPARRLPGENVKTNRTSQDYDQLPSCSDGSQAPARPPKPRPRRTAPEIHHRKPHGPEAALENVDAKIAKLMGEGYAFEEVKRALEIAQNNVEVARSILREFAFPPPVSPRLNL

IC50, < 100 nM:
O=C(Nc1cc(-c2ccc(OC(F)F)cc2C(=O)N2CC(F)(F)C2)cc(C2CC2)n1)c1cc(CNC[C@@H]2CCCCO2)cn(C2CC2)c1=O [Example 388]
CC(C)[C@H](C)NCc1cc(C(=O)Nc2cc(-c3ccc(C#N)cc3C(=O)N3CC(F)(F)C3)cc(C3CC3)n2)c(=O)n(C2CC2)c1 [Example 362]
CCOc1cc(-c2c(F)cc(C#N)cc2C(=O)N2CC(F)(F)C2)cc(NC(=O)c2cc(CNC[C@H](C)OC)cn(C3CC3)c2=O)n1 [Example 340]
CO[C@@H](C)CNCc1cc(C(=O)Nc2cc(-c3ccc(Cl)cc3C(=O)N3CC(C#N)C3)cc(C3CC3)n2)c(=O)n(C2CC2)c1 [Example 155, N-(4-{4-Chloro-2-[(3-cyano-1-azetidinyl)carbonyl]phenyl}-6-cyclopropyl-2-pyridyl)-1-cyclopropyl-5-{[(S)-2-methoxypropylamino]methyl}-2-oxo-1,2-dihydronicotinamide]
CC(C)[C@H](C)NCc1cc(C(=O)Nc2cc(-c3ccc(Cl)cc3C(=O)N3CC(F)(F)C3)cc(C3CC3)n2)c(=O)n(C2CC2)c1 [Example 395]
CCn1cc(CNCC2CC2)cc(C(=O)Nc2cc(-c3ccc(C#N)cc3C(=O)N3CC(F)(F)C3)cc(C3CC3)n2)c1=O [Example 189]
C[C@H](NCc1cc(C(=O)Nc2cc(-c3ccc(OC(F)F)cc3C(=O)N3CC(F)(F)C3)cc(C3CC3)n2)c(=O)n(C2CC2)c1)C1CCC1 [Example 327]
Cc1ccc(-c2cc(NC(=O)c3cc(CNC[C@@H]4CCCO4)cn(C4CC4)c3=O)nc(OC(C)C)c2)c(C(=O)N2CC(F)C2)c1 [Example 309]
CO[C@@H](C)CNCc1cc(C(=O)Nc2cc(-c3ccc(Cl)cc3C(=O)N3CC[C@@H]3C)cc(C3CC3)n2)c(=O)n(C2CC2)c1 [Example 314]
CO[C@@H](C)CNCc1cc(C(=O)Nc2cc(-c3ccc(F)cc3C(=O)N3CC(F)(F)C3)cc(OC(C)C)n2)c(=O)n(C)c1 [Example 387]
CCNc1cc(-c2ccc(OC(F)F)cc2C(=O)N2CC(F)C2)cc(NC(=O)c2cc(CN[C@@H](C)C3CCC3)cn(C)c2=O)n1 [Example 103]
Cc1ccc(-c2cc(NC(=O)c3cc(CNC[C@@H]4CCCO4)cn(C4CC4)c3=O)nc(OCC(F)F)c2)c(C(=O)N2CC(F)(F)C2)c1 [Example 166]
Cn1cc(CNC[C@@H]2CCCCO2)cc(C(=O)Nc2cc(-c3ccc(OC(F)F)cc3C(=O)N3CC(F)(F)C3)cc(C3CC3)n2)c1=O [Example 111, N-[6-cyclopropyl-4-[2-(3,3-difluoroazetidine-1-carbonyl)-4-(difluoromethoxy)phenyl]pyridin-2-yl]-1-methyl-5-[[[(2S)-oxan-2-yl]methylamino]methyl]-2-oxopyridine-3-carboxamide]
COc1ccc(-c2cc(NC(=O)c3cc(CNC[C@H](C)OC)cn(C)c3=O)nc(C3CC3)c2)c(C(=O)N2CC(F)C2)c1 [Example 301]
COCCNCc1cc(C(=O)Nc2cc(-c3ccc(F)cc3C(=O)N3CC(F)C3)cc(C3CC3)n2)c(=O)n(C2CC2)c1 [Example 404]
CO[C@@H](C)CNCc1cc(C(=O)Nc2cc(-c3c(F)cc(Cl)cc3C(=O)N3CC(F)(F)C3)cc(C3CC3)n2)c(=O)n(C)c1 [Example 177]
O=C(Nc1cc(-c2ccc(Cl)cc2C(=O)N2CC(F)(F)C2)cc(C2CC2)n1)c1cc(CNC[C@@H]2CCCCO2)cn(C2CC2)c1=O [Example 398]
CCOc1cc(-c2ccc(C#N)cc2C(=O)N2CC(F)(F)C2)cc(NC(=O)c2cc(CNC[C@H](C)OC)cn(C)c2=O)n1 [Example 181]
CC(C)Oc1cc(-c2ccc(OC(F)F)cc2C(=O)N2CC(F)C2)cc(NC(=O)c2cc(CNC[C@@H]3COCCO3)cn(C)c2=O)n1 [Example 377]
CO[C@@H](C)CNCc1cc(C(=O)Nc2cc(-c3ccc(Cl)cc3C(=O)N(C)C)cc(C3CC3)n2)c(=O)n(C2CC2)c1 [Example 161, N-{4-[4-Chloro-2-(N,N-dimethylcarbamoyl)phenyl]-6-cyclopropyl-2-pyridyl}-1-cyclopropyl-5-{[(S)-2-methoxypropylamino]methyl}-2-oxo-1,2-dihydronicotinamide]
CCNc1cc(-c2ccc(C#N)cc2C(=O)N2CC(F)(F)C2)cc(NC(=O)c2cc(CNCCOC)cn(C3CC3)c2=O)n1 [Example 346]
CO[C@@H](C)[C@H](C)NCc1cc(C(=O)Nc2cc(-c3c(F)cc(C#N)cc3C(=O)N3CC(F)(F)C3)cc(C3CC3)n2)c(=O)n(C)c1 [Example 229]
CO[C@@H](C)CNCc1cc(C(=O)Nc2cc(-c3ccc(OC(F)F)cc3C(=O)N3CC(F)(F)C3)cc(NC(C)C)n2)c(=O)n(C2CC2)c1 [Example 332]
CC(C)CNCc1cc(C(=O)Nc2cc(-c3ccc(C#N)cc3C(=O)N3CC(F)(F)C3)cc(OC(C)C)n2)c(=O)n(C)c1 [Example 211]
COc1ccc(-c2cc(NC(=O)c3cc(CN[C@@H](C)C4CC4)cn(C4CC4)c3=O)nc(C3CC3)c2)c(C(=O)N2CC(F)C2)c1 [Example 291]
C[C@@H]1C[C@H]1CNCc1cc(C(=O)Nc2cc(-c3ccc(Cl)cc3C(=O)N3CC(F)(F)C3)cc(C3CC3)n2)c(=O)n(C2CC2)c1 [Example 384]
N#Cc1ccc(-c2cc(NC(=O)c3cc(CNC[C@@H]4CCCCO4)cn(C4CC4)c3=O)nc(C3CC3)c2)c(C(=O)N2CC(F)(F)C2)c1 [Example 366]
CCOc1cc(-c2ccc(OC(F)F)cc2C(=O)N2CC(F)C2)cc(NC(=O)c2cc(CNCC(C)C)cn(C3CC3)c2=O)n1 [Example 268]
CO[C@@H](C)CNCc1cc(C(=O)Nc2cc(-c3ccc(Cl)cc3C(=O)N3CC(C)C3)cc(C3CC3)n2)c(=O)n(C2CC2)c1 [Example 159, N-(4-{4-Chloro-2-[(3-methyl-1-azetidinyl)carbonyl]phenyl}-6-cyclopropyl-2-pyridyl)-1-cyclopropyl-5-{[(S)-2-methoxypropylamino]methyl}-2-oxo-1,2-dihydronicotinamide]
CO[C@@H](C)CNCc1cc(C(=O)Nc2cc(-c3ccc(Cl)cc3C(=O)N3CC(F)(F)C3)cc(NC(C)C)n2)c(=O)n(C)c1 [Example 169]
COc1ccc(-c2cc(NC(=O)c3cc(CNC[C@H](C)OC)cn(C4CC4)c3=O)nc(OC(C)C)c2)c(C(=O)N2CC(F)(F)C2)c1 [Example 305]
C[C@H](NCc1cc(C(=O)Nc2cc(-c3ccc(C#N)cc3C(=O)N3CC(F)(F)C3)cc(C3CC3)n2)c(=O)n(C)c1)[C@@H]1CCCO1 [Example 354]
CC(C)CNCc1cc(C(=O)Nc2cc(-c3ccc(C#N)cc3C(=O)N3CC(F)(F)C3)cc(N(C)C)n2)c(=O)n(C2CC2)c1 [Example 193]
CO[C@@H](C)CNCc1cc(C(=O)Nc2cc(-c3ccc(Cl)cc3C(=O)N3CCC3)cc(C3CC3)n2)c(=O)n(C2CC2)c1 [Example 156, N-(4-{2-[(1-Azetidinyl)carbonyl]-4-chlorophenyl}-6-cyclopropyl-2-pyridyl)-1-cyclopropyl-5-{[(S)-2-methoxypropylamino]methyl}-2-oxo-1,2-dihydronicotinamide]
COCCNCc1cc(C(=O)Nc2cc(-c3ccc(F)cc3C(=O)N3CC(F)(F)C3)cc(C3CC3)n2)c(=O)n(C2CC2)c1 [Example 403]
N#Cc1ccc(-c2cc(NC(=O)c3cc(CNCC4(F)CCC4)cn(C4CC4)c3=O)nc(C3CC3)c2)c(C(=O)N2CC(F)(F)C2)c1 [Example 400]
CO[C@@H](C)[C@H](C)NCc1cc(C(=O)Nc2cc(-c3ccc(Cl)cc3C(=O)N3CC(F)(F)C3)cc(C3CC3)n2)c(=O)n(C2CC2)c1 [Example 359]
CO[C@@H](C)[C@H](C)NCc1cc(C(=O)Nc2cc(-c3ccc(Cl)cc3C(=O)N3CC(F)C3)cc(OC(C)C)n2)c(=O)n(C2CC2)c1 [Example 259]
N#Cc1ccc(-c2cc(NC(=O)c3cc(CNCC4CC4)cn(C4CC4)c3=O)nc(C3CC3)c2)c(C(=O)N2CC(F)(F)C2)c1 [Example 383]
CCOc1cc(-c2ccc(C#N)cc2C(=O)N2CC(F)(F)C2)cc(NC(=O)c2cc(CN[C@@H](C)C3CCC3)cn(C3CC3)c2=O)n1 [Example 196]
CC(C)CNCc1cc(C(=O)Nc2cc(-c3ccc(OC(F)F)cc3C(=O)N3CC(F)(F)C3)cc(OC(C)C)n2)c(=O)n(C2CC2)c1 [Example 99, N-(4-{2-[(3,3-difluoro-1-azetidinyl)carbonyl]-4-difluoromethoxyphenyl}-6-isopropoxy-2-pyridyl)-1-cyclopropyl-5-[(isobutylamino)methyl]-2-oxo-1,2-dihydronicotinamide]
CC(C)Oc1cc(-c2ccc(C#N)cc2C(=O)N2CC(F)C2)cc(NC(=O)c2cc(CN[C@@H](C)C3CCC3)cn(C)c2=O)n1 [Example 246]
CO[C@@H](C)CNCc1cc(C(=O)Nc2cc(-c3ccc(C)cc3C(=O)N3CC(F)(F)C3)cc(C3CC3)n2)c(=O)n(C2CC2)c1 [Example 273]
CO[C@@H](C)CNCc1cc(C(=O)Nc2cc(-c3c(F)cc(F)cc3C(=O)N3CC(F)(F)C3)cc(OC(C)C)n2)c(=O)n(C2CC2)c1 [Example 368]
CC(C)Oc1cc(-c2ccc(C#N)cc2C(=O)N2CC(F)(F)C2)cc(NC(=O)c2cc(CNC[C@@H]3COCCO3)cn(C)c2=O)n1 [Example 386]

— US20260116868A1 (Arcus Biosciences, Inc., priority 2023, published 2026)
